Measured values published in article PMC9287172, “Molecular basis for the regulation of human glycogen synthase by phosphorylation and glucose-6-phosphate” (Nature Structural & Molecular Biology, 2022).

B2: human glycogen synthase GYS1 (aa 1–737), untagged, as in the GYS1–GYG1^ΔCD complex (enzyme, UniProt P13807 1-737, looked up)
chain: MPLNRTLSMSSLPGLEDWEDEFDLENAVLFEVAWEVANKVGGIYTVLQTKAKVTGDEWGDNYFLVGPYTEQGVRTQVELLEAPTPALKRTLDSMNSKGCKVYFGRWLIEGGPLVVLLDVGASAWALERWKGELWDTCNIGVPWYDREANDAVLFGFLTTWFLGEFLAQSEEKPHVVAHFHEWLAGVGLCLCRARRLPVATIFTTHATLLGRYLCAGAVDFYNNLENFNVDKEAGERQIYHRYCMERAAAHCAHVFTTVSQITAIEAQHLLKRKPDIVTPNGLNVKKFSAMHEFQNLHAQSKARIQEFVRGHFYGHLDFNLDKTLYFFIAGRYEFSNKGADVFLEALARLNYLLRVNGSEQTVVAFFIMPARTNNFNVETLKGQAVRKQLWDTANTVKEKFGRKLYESLLVGSLPDMNKMLDKEDFTMMKRAIFATQRQSFPPVCTHNMLDDSSDPILTTIRRIGLFNSSADRVKVIFHPEFLSSTSPLLPVDYEEFVRGCHLGVFPSYYEPWGYTPAECTVMGIPSISTNLSGFGCFMEEHIADPSAYGIYILDRRFRSLDDSCSQLTSFLYSFCQQSRRQRIIQRNRTERLSDLLDWKYLGRYYMSARHMALSKAFPEHFTYEPNEADAAQGYRYPRPASVPPSPSLSRHSSPHQSEDEEDPRNGPLEEDGERYDEDEEAAKDRRNIRAPEWPRRASCTSSTSGSKRNSVDTATSSSLSTPSEPLSPTSSLGEERN
modifications: multiply phosphorylated (intact mass spectrometry); phosphorylated Ser641 (site 3a) modelled in the inhibited state
notes: human glycogen synthase GYS1 (muscle isoform), amino acids 1–737, codon-optimized synthetic gene; Homotetramer (dimer of dimers) in the cryo-EM structures; source: Sf9 cells, coexpressed with His6-GST-GYG1 294–350 from a bicistronic construct, purified (Ni-Sepharose, Superose 6)

Legend:
Glycogen synthase (GYS1) [1] = target: T1, Glycogen synthase (GYS1) (Homo sapiens, UniProt P13807); test: cryo-EM structures (7Q13 […] Å; also 7Q12, 7Q0S); thermal shift titration, AC50 of PP1c-dephosphorylated GYS1–GYG1^ΔCD; assay type: binding
T1 construct: full-length GYS1 (aa 1–737) coexpressed with GYG1 aa 294–350 (GYS1–GYG1^ΔCD); with GYG1 (aa 294–350)
T1 sequence (P13807 1-737): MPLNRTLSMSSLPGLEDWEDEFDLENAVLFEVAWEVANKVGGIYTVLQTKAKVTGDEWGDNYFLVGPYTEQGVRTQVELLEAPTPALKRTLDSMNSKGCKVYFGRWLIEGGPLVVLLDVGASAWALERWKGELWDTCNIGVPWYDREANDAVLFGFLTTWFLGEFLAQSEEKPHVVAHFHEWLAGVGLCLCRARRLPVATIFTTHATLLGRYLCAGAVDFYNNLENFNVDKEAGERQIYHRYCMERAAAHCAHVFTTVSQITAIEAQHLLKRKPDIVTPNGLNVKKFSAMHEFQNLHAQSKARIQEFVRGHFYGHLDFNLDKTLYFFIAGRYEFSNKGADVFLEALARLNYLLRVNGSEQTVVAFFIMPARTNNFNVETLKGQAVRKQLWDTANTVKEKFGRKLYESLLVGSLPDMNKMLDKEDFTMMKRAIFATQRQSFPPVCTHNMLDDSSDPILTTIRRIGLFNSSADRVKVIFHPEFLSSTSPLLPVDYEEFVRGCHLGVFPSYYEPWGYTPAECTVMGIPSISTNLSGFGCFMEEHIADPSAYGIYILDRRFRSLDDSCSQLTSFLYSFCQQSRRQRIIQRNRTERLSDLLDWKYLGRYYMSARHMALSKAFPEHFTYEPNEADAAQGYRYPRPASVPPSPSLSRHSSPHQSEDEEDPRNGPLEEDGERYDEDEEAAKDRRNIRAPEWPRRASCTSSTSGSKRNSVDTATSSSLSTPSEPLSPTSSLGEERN
T1 sequence (P46976 294-350 partner): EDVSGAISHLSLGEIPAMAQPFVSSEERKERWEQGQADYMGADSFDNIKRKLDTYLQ

PTG (PPP1R3C) [2] = target: T2, PTG (PPP1R3C) (Homo sapiens, UniProt Q9UQK1); test: thermal shift assay (no Kd); assay type: binding
T2 construct: CBM21 domain, aa 134–259
T2 sequence (Q9UQK1 134-259): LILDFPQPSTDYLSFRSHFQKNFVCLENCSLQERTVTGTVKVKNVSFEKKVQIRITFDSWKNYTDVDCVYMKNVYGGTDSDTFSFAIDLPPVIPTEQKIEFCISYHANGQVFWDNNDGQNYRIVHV

PTG (PPP1R3C) [3] = target: T2, PTG (PPP1R3C); test: thermal shift assay titration (AC50); assay type: binding
Glycogen synthase (GYS1) [4] = target: T1, Glycogen synthase (GYS1); test: cryo-EM structure at […] Å with Glc6P and UDP-glc added (UDP-glc hydrolysed); assay type: binding
[5] = target: B2; test: cryo-EM structure; GYS1–GYG1^ΔCD at 0.75 or 0.5 mg ml^-1 in 25 mM HEPES pH 7.5, 200 mM NaCl, 2.0 mM TCEP, 0.05% Tween-20; as purified (inhibited state), with 5 mM Glc6P (inhibited-like and activated states), with 5 mM Glc6P and 5 mM UDP-Glc (activated state); D2 symmetry; settings: both partners purified
[6] = target: the molecule itself; test: as above
[7] = target: T3, GYS1–GYG1^FL complex (full-length human GYS1 with full-length glucosylated GYG1) (human, UniProt P13807 1-737; P46976-1 1-350, heterogeneous phosphorylation | glucosylated (GYG1 is attached with a glucose chain), heterogeneous); test: pull-down; His-PPP1R3C (1.0 mg ml^-1) preincubated with GYS1–GYG1 complex (0.25 mg ml^-1) or GYG1 (0.5 mg ml^-1) for 30 min at 4 °C, captured on Talon resin in 25 mM HEPES pH 7.5, 100 mM NaCl, 1 mM TCEP, 0.2% Tween-20; wash with 10 mM imidazole; SDS-PAGE, Coomassie; settings: both partners purified
T3 construct: human glycogen synthase GYS1, full length; human glycogenin-1 (GYG1), isoform GN-1L, UniProt P46976-1, full length; source: Sf9 cells, coexpressed, purified (Ni-Sepharose, Superose 6, TEV treatment); not shown: His6, N-terminal, cleaved
T3 sequence (looked up) 1: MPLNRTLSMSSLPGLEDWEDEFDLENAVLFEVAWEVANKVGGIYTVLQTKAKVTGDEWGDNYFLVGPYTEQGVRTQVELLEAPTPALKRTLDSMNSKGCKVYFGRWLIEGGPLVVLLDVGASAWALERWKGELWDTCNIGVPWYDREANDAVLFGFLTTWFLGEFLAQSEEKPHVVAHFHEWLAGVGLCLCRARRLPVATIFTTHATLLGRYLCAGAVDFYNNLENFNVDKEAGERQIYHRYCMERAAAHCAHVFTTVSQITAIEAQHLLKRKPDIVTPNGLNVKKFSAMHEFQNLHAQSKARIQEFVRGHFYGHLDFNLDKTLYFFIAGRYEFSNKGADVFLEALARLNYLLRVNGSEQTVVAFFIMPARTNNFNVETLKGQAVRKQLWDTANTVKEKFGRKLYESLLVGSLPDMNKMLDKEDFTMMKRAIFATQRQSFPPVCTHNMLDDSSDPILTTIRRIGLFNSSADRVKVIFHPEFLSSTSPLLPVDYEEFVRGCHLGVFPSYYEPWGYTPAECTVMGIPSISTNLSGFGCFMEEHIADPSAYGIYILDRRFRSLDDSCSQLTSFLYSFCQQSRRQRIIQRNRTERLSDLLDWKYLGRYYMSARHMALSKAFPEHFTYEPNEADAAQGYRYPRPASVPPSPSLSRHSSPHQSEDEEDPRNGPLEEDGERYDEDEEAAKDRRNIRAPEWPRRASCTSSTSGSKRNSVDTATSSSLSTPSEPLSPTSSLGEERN
T3 sequence (looked up) 2: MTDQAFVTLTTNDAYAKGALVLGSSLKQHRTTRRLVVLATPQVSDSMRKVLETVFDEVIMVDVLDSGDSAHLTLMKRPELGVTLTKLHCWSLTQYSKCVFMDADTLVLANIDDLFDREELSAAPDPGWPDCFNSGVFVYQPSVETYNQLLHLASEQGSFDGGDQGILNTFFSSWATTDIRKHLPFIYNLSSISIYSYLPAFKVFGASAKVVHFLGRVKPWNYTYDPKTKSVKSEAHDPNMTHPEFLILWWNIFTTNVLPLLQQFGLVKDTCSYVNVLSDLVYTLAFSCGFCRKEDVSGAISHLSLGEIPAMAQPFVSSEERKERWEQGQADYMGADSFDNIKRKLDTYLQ

Molecule: O=P(O)(O)OC[C@H]1OC(O)[C@H](O)[C@@H](O)[C@@H]1O (stereo partly shown) [Glc6P, glucose-6-phosphate]
- AC50 (Glycogen synthase (GYS1) [1]): 1500 ± 200 µM

Molecule: OC[C@H]1O[C@H](O[C@H]2[C@H](O)[C@@H](O)[C@@H](O[C@H]3[C@H](O)[C@@H](O)[C@@H](O[C@H]4[C@H](O)[C@@H](O)C(O)O[C@@H]4CO)O[C@@H]3CO)O[C@@H]2CO)[C@H](O)[C@@H](O)[C@@H]1O (stereo partly shown) [maltotetraose]
- thermal shift assay (no Kd) (PTG (PPP1R3C) [2]): Glycogen, debranched glycogen, maltotetraose and maltoheptaose increased the thermostability of PTG(CBM21)

Molecule: OC[C@H]1O[C@H](O[C@H]2[C@H](O)[C@@H](O)[C@@H](O[C@H]3[C@H](O)[C@@H](O)[C@@H](O[C@H]4[C@H](O)[C@@H](O)[C@@H](O[C@H]5[C@H](O)[C@@H](O)[C@@H](O[C@H]6[C@H](O)[C@@H](O)[C@@H](O[C@H]7[C@H](O)[C@@H](O)C(O)O[C@@H]7CO)O[C@@H]6CO)O[C@@H]5CO)O[C@@H]4CO)O[C@@H]3CO)O[C@@H]2CO)[C@H](O)[C@@H](O)[C@@H]1O (stereo partly shown) [maltoheptaose]
- AC50 (PTG (PPP1R3C) [3]): 2400 ± 600 µM

Molecule: OC[C@H]1OC(O)[C@H](O)[C@@H](O)[C@@H]1O (stereo partly shown) [GLC, glucose]
- cryo-EM structure at 3.0 Å with Glc6P and UDP-glc added (UDP-glc hydrolysed) (Glycogen synthase (GYS1) [4]): The hydrolysed glucose molecule formed multiple hydrogen bonds with the side chains of Arg211, Arg311, Glu510 and Tyr514

B1: human GYG1 C terminus, aa 294–350 (GYG1^ΔCD) (domain or fragment, UniProt P46976-1 294-350, looked up)
chain: EDVSGAISHLSLGEIPAMAQPFVSSEERKERWEQGQADYMGADSFDNIKRKLDTYLQ
notes: human glycogenin-1 (GYG1), isoform GN-1L, UniProt P46976-1, amino acids 294–350, codon-optimized synthetic gene; Residues 317–349 were modelled in the cryo-EM map; The methods name MBP-His6, His6-GST and His6-GFP tags as tried; the results name His6-GST for the bicistronic constructs; also called GYG1 294–350; not shown: His6-GST, N-terminal, cleaved
- stoichiometry N [5]: 1

Molecule: B2
- stoichiometry N [6]: 4

B3: human PTG (PPP1R3C) aa 134–259, CBM21 domain construct, His-tagged (domain or fragment, UniProt Q9UQK1 134-259, looked up)
chain: LILDFPQPSTDYLSFRSHFQKNFVCLENCSLQERTVTGTVKVKNVSFEKKVQIRITFDSWKNYTDVDCVYMKNVYGGTDSDTFSFAIDLPPVIPTEQKIEFCISYHANGQVFWDNNDGQNYRIVHV
notes: The His6-tag is TEV-cleavable but was kept: the protein was captured on Talon resin by it; also called PTG(CBM21); His-PPP1R3C; source: cultured in autoinduction Terrific Broth, purified (Ni-Sepharose, Superdex 75); not shown: His6, N-terminal, kept
- binding result [7]: binds
